# Results from patent publication US20230000995A1, “DOLASTATIN 10 ANALOG” (Ariel Scientific Innovations Ltd., priority 2020, published 2023).
# Where two headings read alike, the source gives them in different places. Where a SMILES comes first, the peptide text is derived from it. [ ]: non-standard residue; d: D form. Dolaproine = CO[C@@H]([C@@H]1CCCN1)[C@@H](C)C(=O)O; Dil = CC[C@H](C)[C@H](NC)[C@@H](CC(=O)O)OC; Phe(ol) = N[C@H](CO)Cc1ccccc1; NMeV = CN[C@H](C(=O)O)C(C)C
# Columns and labels:
# [1] = system: HCT116 (human colon cancer cell line); experiment: In vitro cytotoxicity, XTT assay, 8 days incubation; type: cell-based; details: read-out: IC50 HC116 (8 days)
# From the text: (§1) The exemplary dolastatin 10 analog, Dolas-Ol, was subjected to an in vitro assay to test its cytotoxicity towards two cancerous cell lines: WM266-4 (malignant melanoma cell line)) and HCT116 (human colon cancer cell line). The study was design to assess the activity of a dolastatin 10 analog, according to some embodiments of the present invention, compared to other dolastatin 10 derivatives known in the art, Auristatin F, Auristatin F-Ol and Dolastatin-CO2H.
# (§2) All samples contained DMSO at final concentration<0.05%. Cells cultures were initiated in microplate wells at a concentration of 2-4×10^4 cells/well and the cells were allowed to adhere for 24 h incubation period. At this time the cells were washed, fresh medium containing different concentrations of the tested substances were added and the cells were incubated for additional 8 days. The medium was then removed, all the wells were washed with PBS and cultured for 24 hrs in fresh medium without drugs. The cells were washed again and given a fresh medium containing the XTT reagent and re-incubated for 2-4 h. Absorbence in the wells was measured with a TECAN Infinite M200 ELISA reader at both 480 and 680 nm e, the latter being the background absorbance. The absorbencies were normalized to the absorbance of cells grown in medium and solvent. All the tests were repeated three times in quadruplicates.
# [2] = system: WM266-4 (malignant melanoma cell line); experiment: as above; type: cell-based; details: read-out: IC50 MW266 (8 days)
# From the text: as §1, §2
# [3] = system: tubulin; details: cited from earlier work
# [4] = system: tubulin; details: purified tubulin in glutamate; read-out: IC50 for the polymerization of purified tubulin in glutamate; cited from earlier work
# [5] = system: L1210 murine leukemia cells; details: L1210 murine leukemia cells in culture; read-out: IC50 value for cell growth; cited from earlier work
# [6] = system: TRAMP C2 cells that overexpressed SSTR2; experiment: Growth inhibition by Dolas-Ol conjugates, XTT assay; type: cell-based; details: 1 μM, 3 hours exposure, then 8 days
# Procedure: (§3) Table 2 presents the growth inhibition values of octreotide amide, conjugates 8b-d in the cell cultures calculated according to the concentration of 1 μM. The calculation for all values is provided relative to control 100% of GI (for all values, p<0.01).
# [7] = system: H1299 cells that overexpressed SSTR2; experiment: as above; type: cell-based; details: 1 μM, 3 hours exposure, then 8 days
# Procedure: as §3
# [8] = system: HC116 cells that overexpressed SSTR2; experiment: as above; type: cell-based; details: 1 μM, 3 hours exposure, then 8 days
# Procedure: as §3
# [9] = system: cell lines with overexpressed SSTR2 versus HEK; details: 1 μM; SSTR2 overexpressing cell lines versus HEK with low expression
# Procedure: HC116, H1299 and TRAMP C2 cells that overexpressed SSTR2 were incubated for 3 hours with 1 μM doses of the conjugates, according to some embodiments of the present invention, and then the cells were washed and proceed for incubation for the following 8 days. At the end of incubation for 8 days, the metabolic activities of cells were measured using the XTT assay.
# [10] = system: HEK (low SSTR2 expression); experiment: Growth inhibition by Dolas-Ol conjugates, XTT assay, negative control cells; type: cell-based; details: 1 μM, 3 hours exposure, then 8 days
# Procedure: as §3
Compound,"IC50 ([1]; Homo sapiens, HCT-116, 192 h) [nM]","IC50 ([2]; Homo sapiens, WM 266-4, 192 h) [nM]",IC50 [4] [nM],IC50 [5] [nM],also measured
CC[C@H](C)[C@@H]([C@@H](CC(=O)N1CCC[C@H]1[C@H](OC)[C@@H](C)C(=O)N[C@@H](Cc1ccccc1)C(=O)O)OC)N(C)C(=O)[C@@H](NC(=O)[C@@H](NC)C(C)C)C(C)C (H-[NMeV]V[Dil][Dolaproine]F-OH),18.27 ± 0.06,15.59 ± 0.03,–,–,–
CC[C@H](C)[C@@H]([C@@H](CC(=O)N1CCC[C@H]1[C@H](OC)[C@@H](C)C(=O)N[C@H](CO)Cc1ccccc1)OC)N(C)C(=O)[C@@H](NC(=O)[C@@H](NC)C(C)C)C(C)C [Auristatin F- O1] (H-[NMeV]V[Dil][Dolaproine][Phe(ol)]),29.71 ± 0.04,58.82 ± 0.05,–,–,–
CC[C@H](C)[C@@H]([C@@H](CC(=O)N1CCC[C@H]1[C@H](OC)[C@@H](C)C(=O)N[C@@H](Cc1ccccc1)c1nccs1)OC)N(C)C(=O)[C@@H](NC(=O)[C@H](C(C)C)N(C)C)C(C)C [Dolastatin 10],–,–,1200,0.5,inhibition of the binding of radiolabeled vinblastine and vincristine to tubulin [3]: strongest inhibitor
CC[C@H](C)[C@@H]([C@@H](CC(=O)N1CCC[C@H]1[C@H](OC)[C@@H](C)C(=O)N[C@@H](Cc1ccccc1)c1nc(C(=O)O)cs1)OC)N(C)C(=O)[C@@H](NC(=O)[C@H](C(C)C)N(C)C)C(C)C [Dolastatin- CO2H],52.5 ± 0.03,31.75 ± 0.02,–,–,–
C[C@@H](O)[C@H](NC(=O)[C@@H]1CSSC[C@H](NC(=O)[C@H](N)Cc2ccccc2)C(=O)N[C@@H](Cc2ccccc2)C(=O)N[C@H](Cc2c[nH]c3ccccc23)C(=O)N[C@@H](CCCCN)C(=O)N[C@@H]([C@@H](C)O)C(=O)N1)C(N)=O [Octreotide amide],–,–,–,–,"growth inhibition, TRAMP C2-8 days [6]: 6.5%; growth inhibition, H1299-8 days [7]: 8.4%; growth inhibition, HC116-8 days [8]: 6.1%; cytotoxicity (in words) [9]: not cytotoxic; growth inhibition, HEK as negative control [10]: 7.9%"
COc1cc2cc(c1Cl)N(C)C(=O)C[C@H](OC(=O)[C@H](C)N(C)C(C)=O)[C@]1(C)O[C@H]1[C@H](C)[C@@H]1C[C@@](O)(NC(=O)O1)[C@H](OC)/C=C/C=C(\C)C2 [maytansine],–,–,3500,0.5,–
C=C(C)[C@@H]1NC(=O)[C@@H](NC)[C@@H](O)c2cc(Cl)c(O)c(c2)O[C@](C)(CC)[C@@H](C(=O)N2CC=C[C@H]2C(=O)N/C(C(=O)N/C(=C/C(=O)O)C(=O)O)=C(\C)CC)NC1=O [phomopsin A],–,–,1400,7000,–
CO[C@@H](/C(C)=C/C=C/C(C)=C/c1coc(C)n1)[C@@H](C)[C@@H]1C[C@H](O)[C@@]2(C)O[C@@H]2/C=C/[C@@H](C)[C@H]2C[C@H](CC(=O)O2)C[C@@H]2O[C@H]2C(=O)O1 [rhizoxin],–,–,6800,1,–
CC[C@]1(O)C[C@@H]2CN(CCc3c([nH]c4ccccc34)[C@@](C(=O)OC)(c3cc4c(cc3OC)N(C)[C@H]3[C@@](O)(C(=O)OC)[C@H](OC(C)=O)[C@]5(CC)C=CCN6CC[C@]43[C@@H]65)C2)C1 [vinblastine],–,–,[…],20,–
"(2S)-2-((S)-2-(dimethylamino)-3-methylbutanamido)-N-((3R,4S,5S)-1-((2S)-2-((1R,2R)-3-((1-(5-(hydroxymethyl)thiazol-2-yl)-2-phenylethyl)amino)-1-methoxy-2-methyl-3-oxopropyl)pyrrolidin-1-yl)-3-methoxy-5-methyl-1-oxoheptan-4-yl)-N,3-dimethylbutanamide [Dolas-O1]",–,–,–,–,IC50 [1]: 3.67 ± 0.03 nM; IC50 [2]: 2.24 ± 0.03 nM
